From US8536120B2 (The Administrators of The Tulane Educational Fund, priority 2006, dated 2013)
Several values for one entry are separate records, joined by “and”; a condition that tells them apart may be missing. Equal values may be shown once. Where a SMILES comes first, the peptide text is derived from it. Where no end group is shown, it is not given here. [ ]: non-standard residue; d: D form. dTrp(2-Me) = Cc1[nH]c2ccccc2c1C[C@@H](N)C(=O)O; d2Nal = N[C@H](Cc1ccc2ccccc2c1)C(=O)O

Key:
[1] = molecular target: T1, ghrelin receptor (Rattus norvegicus, UniProt O08725); assay: Ghrelin-induced GH release in free-moving adult male rats after GHS-A pretreatment (icv or iv); format: in vivo; conditions: vs normal saline; for Plasma GH response to ghrelin i.c.v.: 5 μg antagonist icv 15 min before 500 ng ghrelin icv
T1 construct: from tissue; host or cells: whole animal (rat), i.c.v. or i.v. dosing
T1 sequence (O08725 whole entry): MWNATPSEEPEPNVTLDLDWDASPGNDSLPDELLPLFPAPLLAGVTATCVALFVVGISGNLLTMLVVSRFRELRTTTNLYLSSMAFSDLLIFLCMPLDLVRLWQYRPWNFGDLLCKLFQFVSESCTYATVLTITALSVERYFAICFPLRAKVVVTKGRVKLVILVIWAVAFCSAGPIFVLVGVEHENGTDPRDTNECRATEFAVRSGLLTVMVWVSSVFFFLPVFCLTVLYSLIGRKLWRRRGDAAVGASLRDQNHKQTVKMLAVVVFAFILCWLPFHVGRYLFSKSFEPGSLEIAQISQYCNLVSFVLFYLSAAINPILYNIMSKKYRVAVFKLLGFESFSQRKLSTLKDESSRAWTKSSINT
Description: (§1) Adult male Sprague Dawley rats (225-260 g) were purchased from Charles River Canada (St. Constant, Canada) and individually housed on a 12-h light, 12-h dark cycle (lights on, 0600-1800 h) in a temperature (22±1° C.)—and humidity-controlled room. Purina rat chow (Ralston Purina Co., St. Louis, Mo.) and tap water were available ad libitum.
(§2) Chronic intracerebroventricular (i.c.v.) and intracardiac venous cannulas were implanted under sodium pentobarbital (50 mg/kg, i.p.) anesthesia using previously described techniques in (2) and (11). The placement of the icv cannulae was verified by both a positive drinking response to i.c.v. carbachol (100 ng/10 μl) injection on the day after surgery and methylene blue dye at the time of death. After surgery, the rats were placed directly in isolation test chambers with food and H2O freely available until body weight returned to preoperative levels (usually within 5-7 d). During this time the rats were handled daily to minimize any stress associated with handling on the day of the experiment. On the test day, food was removed 1.5 h before the start of sampling and was returned at the end.
The efficacy of GHS-A to antagonize ghrelin's stimulatory action on GH at both central and peripheral sites was examined. […] (500 ng). Both the human ghrelin peptide (provided by Dr. K. Chang, Phoenix Pharmaceuticals, Inc., Belmont, Calif.) and the GHS-A were diluted in normal saline just before use. Blood samples (0.35 ml) were withdrawn every 15 min over a 6-h sampling period (1000-1600 h) from all animals. […] All blood samples were immediately centrifuged, and plasma was separated and stored at −20° C. for subsequent assay of GH. To avoid hemodynamic disturbance, the red blood cells were resuspended in normal saline and returned to the animal after removal of the next blood sample.
Blood samples were withdrawn from 1000-1600 h, as described above.

[2] = molecular target: T1, ghrelin receptor; assay: Spontaneous pulsatile GH secretion in free-moving rats after icv GHS-A; format: in vivo; conditions: 5 μg GHS-A icv; vs normal saline; P<0.01 or less
Description: as §1, §2
These time points were chosen because they correspond closely to the time of onset of the spontaneous GH secretory episodes, as previously documented in our laboratory (2, 4). […]

[3] = molecular target: T1, ghrelin receptor; assay: Ghrelin-stimulated food intake in rats after icv GHS-A; format: in vivo; conditions: 500 ng ghrelin icv, vs normal saline
Description: as §1, §2
Food intake was monitored on an hourly basis as described above. In this experiment, food was removed 1.5 h before the start of the test.

[4] = molecular target: T1, ghrelin receptor; assay: Spontaneous food intake in overnight-fasted rats after icv GHS-A; format: in vivo; conditions: 5 μg GHS-A icv; overnight-fasted animals; P<0.004 vs normal saline
Description: as §1
Chronic intracerebroventricular (i.c.v.) and intracardiac venous cannulas were implanted under sodium pentobarbital (50 mg/kg, i.p.) anesthesia using previously described techniques in (2) and (11). […]
The effects of the GHS-A on both spontaneous and ghrelin-induced food intake and body weight gain were investigated. […] Food intake was monitored on an hourly basis for 5 h after the initial injection (until 1600 h) and subsequently overnight (1600-0900 h next morning). A measured amount of rat chow pellets was placed in the cage every hour. Spillage was collected by placement of a diaper under the rat cages, and total food consumed for each period was calculated by subtracting uneaten food plus spillage from total given. Body weights were recorded daily at 0900 h. The latency to the onset of the first meal after the injection and the duration of that meal were also monitored.

[5] = molecular target: T2, human ghrelin receptor type 1a (GHS-R1a) (Homo sapiens, UniProt Q92847); assay: Receptor binding: displacement of radiolabelled ghrelin on membranes of HEK-293 cells; conditions: read-out: binding affinities (Ki)
T2 construct: expressed in transfected cells; host or cells: HEK-293 cells (membranes)
T2 sequence (Q92847 whole entry): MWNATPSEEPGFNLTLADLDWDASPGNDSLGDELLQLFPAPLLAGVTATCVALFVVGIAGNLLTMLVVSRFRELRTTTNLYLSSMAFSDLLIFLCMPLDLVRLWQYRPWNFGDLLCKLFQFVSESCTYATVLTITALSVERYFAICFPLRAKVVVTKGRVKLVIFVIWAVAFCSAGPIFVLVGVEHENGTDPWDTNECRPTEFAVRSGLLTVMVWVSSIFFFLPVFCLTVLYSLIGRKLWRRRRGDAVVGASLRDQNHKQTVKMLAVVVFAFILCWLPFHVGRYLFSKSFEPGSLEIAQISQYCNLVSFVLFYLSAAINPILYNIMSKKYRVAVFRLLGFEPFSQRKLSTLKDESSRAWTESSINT

[6] = molecular target: T3, Ghrelin/GHRP/GHS Receptor (Rattus norvegicus, UniProt O08725); assay: In vivo assay of GH release in rat, i.v. peptide alone or plus stimulator, serum GH by RIA
T3 sequence (O08725 whole entry): as the sequence (O08725 whole entry) above
Description: (§3) The peptides were synthesized by the solid phase method and purified by HPLC. GH was determined by Radioimmunoassay (RIA).
For the in vivo assay of GH Release in rat, immature female Sprague Dawley rats were obtained from Charles River from Wilmington, Mass. After arrival they were housed at 25° C. with a 14:10 h light:dark cycle. Water and Purina rat chow were available at libitum. Pups were weaned at 21 days of age.
Immature twenty six day old female Sprague Dawley rats, 3-6 rats per treatment dose, were pretreated with pentobarbital 20 minutes before iv injection of vehicle/peptide or peptide plus stimulator. Injection was made as a 0.1 ml solution. For the non-pentobarbital treated rat assay, peptides were administered iv into the tail vein of conscious rats. All animals were sacrificed by guillotine after iv peptide or vehicle. Trunk blood was collected at +10-15 minutes […], allowed to clot, centrifuged and serum stored until assayed for GH levels by RIA. The GH RIA reagents were distributed by the NIH. Control data was collected from rats treated with only the corresponding vehicle in the absence of peptide or stimulator. Control stimulated data was collected from rats treated with stimulator alone in the absence of any peptide.

[7] = molecular target: T3, Ghrelin/GHRP/GHS Receptor; assay: In vitro cell culture method: GH release from cell culture of pituitary cells, peptide alone or plus stimulator; format: cell-based; parameters: from cell culture of pituitary cells; endogenous in cells; host or cells: dispersed primary rat anterior pituitary cells, 4 days in culture
Description: as §3
In vitro GH Release-Female rats of the CD-1 strain were housed in a constant temperature room at 24° C. with 14 h light and 10 h darkness. The rats were fed Purina Rat chow and water at libitum. All studies were started between 0800-1000 hours. Pituitaries of mature female Sprague Dawley rats were rapidly removed after decapitation, neurointermediate lobe discarded and then placed in a pH 7.4 buffer. The pituitaries were cut into ˜3-mm pieces and then transferred to a flask containing HEPS buffer with trypsin and incubated at 37° C. Cells were triturated several times during this period. After dispersion, the cells were collected by centrifugation, wash with DMEM and placed into culture well. Cell cultures were maintained for 4 days at 37° with 8% CO2 added to the incubator atmosphere. After 4 days in culture, cells were washed with lactated Ringer's solution adjusted to pH 7.2-7.4 and then vehicle, peptide alone or peptide plus stimulator was added to media. Incubation time was 60-120 minutes after which media was removed from each well for GH determination. The GH RIA reagents were distributed by the NIH. Control data was collected from cell cultures treated with only the corresponding vehicle in the absence of peptide or stimulator. Control stimulated data was collected from cell cultures treated with stimulator alone in the absence of any peptide.

[8] = molecular target: T3, Ghrelin/GHRP/GHS Receptor; assay: In vitro pituitary incubation method: GH release from isolated pituitary glands, peptide alone or plus stimulator; format: cell-based; parameters: from cell culture of pituitary cells; endogenous in cells; host or cells: dispersed primary rat anterior pituitary cells, 4 days in culture; conditions: Table 12; Stimulator *S = Tyr-DTrp-Ala-Trp-Dphe-NH2 alone 0.3 μg/ml
Description: as §3
Hormonal activities were obtained from in vitro studies using pituitaries of 20 day old CD-1 strain Sprague Dawley female rats. Two pituitaries were incubated for a total of 4-6 hours. Medium was removed each hour for RIA of GH level and fresh medium was added again. After two one hour preincubation periods (P1-P2), the vehicle/peptides were added to two one hour incubations (I3-I4). Peptide activity was calculated as the change in the hormonal level (delta) between I3+I4 and P2. For antagonist activity, the incubation was continued for 2 additional hours (I5-I6) where both the peptide and a stimulator of GH secretion was added and the antagonist activity was calculated as the change in the hormonal level (delta) between I5+I6 and P2. The peptides were assayed in triplicate and the hormone was assayed in duplicate. Each value recorded represents the mean of 6. The GH RIA reagents were distributed by the NIH. Control data was collected from isolated pituitary glands treated with only the corresponding vehicle in the absence of peptide or stimulator. Control stimulated data was collected from isolated pituitary glands treated with stimulator alone in the absence of any peptide.

## H[d2Nal][dK]W[dF]K-NH2
[1]
  Plasma GH response to ghrelin i.c.v.: virtually obliterated the GH response to ghrelin
[1]; listed as GHS-A
  Plasma GH response to ghrelin i.c.v.: abolished the stimulatory action of ghrelin on GH release
[1]; 250 μg antagonist iv 15 min before 5 μg ghrelin iv, listed as GHS-A
  Plasma GH response to ghrelin i.v.: strongly blocked ghrelin's ability to release GH
[1]; GHS-A icv pretreatment, 500 ng ghrelin icv, P<0.0003 or less
  Reduction of GH AUC following i.c.v. ghrelin: 15 fold
[1]; GHS-A iv pretreatment, 5 μg ghrelin iv, P<0.0003 or less
  Reduction of GH AUC following i.v. ghrelin: 5 fold
[2]
  1-h GH AUC's of spontaneous GH secretory episodes at 1100 h and 1400 h, and overall 6-h GH AUC: significantly reduced
[3]; 5 μg GHS-A icv
  Cumulative food intake after ghrelin: significantly suppressed for up to 5 h
[3]; 5 μg antagonist icv, P<0.02 or less
  Ghrelin-stimulated food intake in the first hour after injections: significantly inhibited
[4]
  Spontaneous food intake in the first hour after injection: significantly inhibited

## Cc1[nH]c2ccccc2c1C[C@@H](NC(=O)[C@@H](N)Cc1cnc[nH]1)C(=O)N[C@@H](C)C(=O)N[C@@H](Cc1c[nH]c2ccccc12)C(=O)N[C@H](Cc1ccccc1)C(=O)N[C@@H](CCCCN)C(N)=O [hexarelin] (H-H[dTrp(2-Me)]AW[dF]K-NH2)
[5]
  Ki: 0.59 nM

## [dA][d2Nal]AW[dF]K-NH2 [reference compound]
[6]; Table 2, stimulator DAla-DβNal-Ala-Trp-DPhe-Lys-NH2 alone 0.3 μg, rat
  Stimulated Control GH: 2253 ± 252 ng/mL and 1412 ± 400 ng/mL
[6]; Table 2, stimulator DAla-DβNal-Ala-Trp-DPhe-Lys-NH2 alone 1 μg, rat
  Stimulated Control GH: 3214 ± 276 ng/mL and 3105 ± 429 ng/mL and 2406 ± 288 ng/mL and 2825 ± 134 ng/mL and 3104 ± 429 ng/mL
[6]; Table 4, Non-Pentobarbital Rats, stimulator DAla-DβNal-Ala-Trp-DPhe-Lys-NH2 alone 10 μg
  Stimulated Control GH: 72 ± 9 ng/mL
[6]; Table 4, Pentobarbital Rats, stimulator DAla-DβNal-Ala-Trp-DPhe-Lys-NH2 alone 1 μg
  Stimulated Control GH: 4950 ± 98 ng/mL
[7]; Table 6, stimulator DAla-DβNal-Ala-Trp-DPhe-Lys-NH2 alone 10 ng/ml
  Stimulated Control GH release: 2420 ± 0 ng/mL and 2811 ± 229 ng/mL and 2385 ± 8 ng/mL
[7]; Table 9, stimulator DAla-DβNal-Ala-Trp-DPhe-Lys-NH2 alone 1 ng/ml
  Stimulated Control GH release: 1232 ± 34 ng/mL
[7]; Table 10, stimulator DAla-DβNal-Ala-Trp-DPhe-Lys-NH2 alone 1 ng/ml
  Stimulated Control GH release: 905 ± 6 ng/mL and 1153 ± 36 ng/mL and 1216 ± 26 ng/mL and 1461 ± 58 ng/mL and 1016 ± 18 ng/mL and 859 ± 4 ng/mL and 1060 ± 24 ng/mL
[7]; Table 11, stimulator DAla-DβNal-Ala-Trp-DPhe-Lys-NH2 alone 1 ng/ml
  Stimulated Control GH release: 905 ± 6 ng/mL and 947 ± 11 ng/mL and 947 ± 33 ng/mL and 1016 ± 18 ng/mL

## Tyr-DTrp-Ala-Trp-Dphe-NH2
[8]
  Stimulated Control GH release: 2218 ± 194 ng/mL
